In patent publication US8354419B2, “Benzimidazole analogues for the treatment or prevention of flavivirus infections” (Vertex Pharmaceuticals Incorporated, priority 2009, dated 2013):

What follows are compounds tested on HCV (Ib) RNA replication (assay: Cell-based luciferase reporter HCV (1b) RNA replication assay (replicon cell lines Huh-7 5.2 and ET)). Settings: Hepatitis C virus, Huh-7, 96 h, HCV 1b genotype replicon, luciferase readout, 4 days incubation; read-out: EC50_1b.
Design: species or system Hepatitis C virus
Method in brief: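 Huh-7-derived 5.2 or ET replicon cells carrying a firefly luciferase reporter were seeded at ~3000 cells/well in medium without G418 or phenol red. Compound was added after 3-4 h, followed by 4 days at 37 °C. Luciferase readout was used, with IC50 fitted by nonlinear regression from eleven concentrations in duplicate.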

Row | SMILES | EC50
1 | COC(=O)N[C@H](C(=O)N1CCC[C@H]1c1nc2cc(C#Cc3ccc4nc([C@@H]5CCCN5C(=O)[C@H](C(C)C)N(C)C(=O)OC)[nH]c4c3)ccc2[nH]1)C(C)C [Compound 117] | ≤ 5 nM
2 | COC(=O)N[C@@H](C)C(=O)N1CCC[C@H]1c1nc2cc(C#Cc3ccc4[nH]c([C@@H]5CCCN5C(=O)[C@H](C)NC(=O)OC)nc4c3)ccc2[nH]1 [Compound 50] | ≤ 5 nM
3 | CC(C)[C@H](NC(=O)Cc1c[nH]c2ccccc12)C(=O)N1CCC[C@H]1c1nc2cc(C#Cc3ccc4[nH]c([C@@H]5CCCN5C(=O)[C@@H](NC(=O)Cc5c[nH]c6ccccc56)C(C)C)nc4c3)ccc2[nH]1 [Compound 89] | 5 to 5000 nM
4 | COC(=O)N(C(C)C)[C@H](C(=O)N1C[C@@H](C)C[C@H]1c1nc2cc(-c3ccc(-c4ccc5nc([C@@H]6C[C@H](C)CN6C(=O)[C@H](C(C)C)N(C(=O)OC)C(C)C)[nH]c5c4)cc3)ccc2[nH]1)C(C)C [Compound 279] | ≤ 5 nM
5 | COC(=O)N[C@H](C(=O)N1[C@H](c2nc3cc(-c4ccc(-c5ccc6nc([C@@H]7CCC(C)(C)N7C(=O)[C@@H](NC(=O)OC)C(C)C)[nH]c6c5)cc4)ccc3[nH]2)CCC1(C)C)C(C)C [Compound 311] | ≤ 5 nM
6 | COC(=O)NC(C(=O)N1C[C@H](O)C[C@H]1c1nc2ccc(-c3ccc(-c4ccc5[nH]c([C@@H]6C[C@@H](O)CN6C(=O)[C@@H](NC(=O)OC)C(C)C)nc5c4)cc3)cc2[nH]1)C(C)C (stereo in doubt) [Compound 26, ((S)-1-{(2S,4R)-4-Hydroxy-2-[5-(4-{2-[(2S,4R)-4-hydroxy-1-((S)-2-methoxycarbonylamino-3-methyl-butyryl)-pyrrolidin-2-yl]-1H-benzoimidazol-5-yl}-phenyl)-1H-benzoimidazol-2-yl]-pyrrolidine-1-carbonyl}-2-methyl-propyl)-carbamic acid methyl ester] | ≤ 5 nM
7 | COC(=O)N[C@H](C(=O)N1CCC[C@H]1c1nc2ccc(-c3cn(-c4ccc5nc([C@@H]6CCCN6C(=O)[C@@H](NC(=O)OC)C(C)C)[nH]c5c4)nn3)cc2[nH]1)C(C)C [Compound 21, ((S)-1-{(S)-2-[6-(1-{2-[(S)-1-((S)-2-Methoxycarbonylamino-3-methyl-butyryl)-pyrrolidin-2-yl]-3H-benzoimidazol-5-yl}-1H-[1,2,3]triazol-4-yl)-1H-benzoimidazol-2-yl]-pyrrolidine-1-carbonyl}-2-methyl-propyl)-carbamic acid methyl ester] | ≤ 5 nM
8 | O=C1O[C@@H]2C[C@@H]3C[C@@H]2[C@@H]1[C@H]3C(=O)N1CCC[C@H]1c1nc2cc(-c3ccc(-c4ccc5[nH]c([C@@H]6CCCN6C(=O)[C@H]6[C@H]7C[C@@H]8[C@H]6C(=O)O[C@@H]8C7)nc5c4)cc3)ccc2[nH]1 [Compound 230] | 5 to 5000 nM
9 | COC(=O)N[C@H](C(=O)N1CCC[C@@]1(C)c1nc2cc(-c3ccc(-c4ccc5[nH]c([C@]6(C)CCCN6C(=O)[C@@H](NC(=O)OC)C(C)C)nc5c4)cc3)ccc2[nH]1)C(C)C [Compound 249] | ≤ 5 nM
10 | COC(=O)N[C@H](CC1CCC1)C(=O)N1CCC[C@H]1c1nc2ccc(C#Cc3ccc4nc([C@@H]5CCCN5C(=O)[C@@H](CC5CCC5)NC(=O)OC)[nH]c4c3)cc2[nH]1 [Compound 142] | ≤ 5 nM
11 | CC(C)(C)OC(=O)N1CCC[C@H]1c1nc2cc(N3CCCN(c4ccc5nc([C@@H]6CCCN6C(=O)OC(C)(C)C)[nH]c5c4)CC3)ccc2[nH]1 [Compound 273] | > 5000 nM
12 | COC(=O)N[C@H](C(=O)N1C[C@@H](C)C[C@H]1c1nc2cc(-c3ccc(-c4ccc5nc([C@@H]6CCCN6C(=O)[C@@H](NC(=O)OC)C(C)C)n(C)c5c4)cc3)ccc2[nH]1)C(C)C [Compound 271] | ≤ 5 nM
13 | COC(=O)N[C@H](C(=O)N1C[C@@H](C)C[C@H]1c1nc2cc(-c3ccc(-c4ccc5[nH]c([C@@H]6C[C@H](C)CN6C(=O)[C@@H](NC(=O)OC)C(C)C)nc5c4)c4nsnc34)ccc2[nH]1)C(C)C [Compound 304] | ≤ 5 nM
14 | COC(=O)N[C@H](C(=O)N1CCCC[C@H]1c1nc2ccc(-c3ccc(-c4ccc5nc([C@@H]6CCCCN6C(=O)[C@@H](NC(=O)OC)C(C)C)[nH]c5c4)cc3)cc2[nH]1)C(C)C [Compound 148] | ≤ 5 nM
